From patent US20070021485A1, “Aryl (or heteroaryl) azolylcarbinols” (priority 2005, published 2007)
Where two headings read alike, the source gives them in different places.

Experiments:
[1] = tested on: immobility in forced swimming; assay: Water despair test (forced swimming) in rats; type: in vivo; conditions: for ED50: read-out: Swimming Test Forced swimming In rats ED50; for Swimming Test Forced swimming In rats, activity at single dose: 40 mg/Kg
Description: The test was described by R. D. Porsolt et al. (Europ.J.Pharmacol. 1978, 47:379-391). […] The following day, 24 hours later, were let to swim in the water, but only for 5 minutes, and it was […] immobility time. The compounds to be studied were administered by ip route, 60 minutes before the test. The antidepressants reduce the immobility time. […] (Tablel).

[2] = tested on: reserpine-induced ptosis; assay: Inhibition of reserpine-induced ptosis in mice; type: in vivo; conditions: for ED50: Mus musculus, read-out: Inhibition test Reserpin ptosis In mice ED50
Description: It has been used the test described by S.Garattini et al. (Med.Exp. 1960, 3: 315-320). The antidepressant drugs inhibit the parpebral ptosis induced by reserpine ([…], i.p.) in mice.

[3] = tested on: acetic acid-induced bladder hyperactivity; assay: Protection against acetic acid-induced bladder hyperactivity in the anesthetized rat; type: in vivo; conditions: for protection of the rat bladder against the acetic acid-induced hyperactivity: cizolirtine 5, 10 mg/kg i.v.; for protection of the rat bladder against the acetic acid-induced hyperactivity / number of micturitions / volume for the first micturition: duloxetine 1 mg/kg; for number of micturitions / volume for the first micturition: cizolirtine 5 and 10 mg/kg, vs control, FIG. 4
Description: (a) Protection Against Acetic Acid-induced Hyperactivity: Urodynamic Parameters
Anesthetized rat bladders were treated with […], […] and 1 mg/kg duloxetine, […] and 5 mg/kg cizolirtine, […] and 10 mg/kg cizolirtine, or […] and 10 mg/kg N-desmethyl metabolite. The number of micturitions, the volume for first micturition, micturition volume, intravesical pressure increase, and AUC of intravesical pressure were measured for each of the treatment groups and the control.
(§1) This is performed on Sprague-Dawley male and female anaesthetized rats. Left carotid artery is inserted with a catheter for the continuous measure of systemic arterial pressure and cardiac frequency. After an incision to the abdomen, a catheter is inserted on the bladder and connected to a pressure transducer and to an infusion pump. The urethra is ligated and the bladder is voided. After stabilization period, saline solution is infused (0.9 % NaC1solution at 5 ml/h rate) and the basal parameters of intravesical pressure are measured for 20 min. Cystometry parameters are the infusion volume and pressure needed to activate the micturition reflex, and the micturition frequency. After stabilization period, the compounds are administered i.v. and, 15 min. later, saline is infused and urodynamic parameters are measured again to compare with basal.
Further the effect on acetic acid-induced bladder hiperactivity is tested.

[4] = tested on: rat bladder contractions; assay: Isovolumetric rhythmic bladder contractions in the anesthetized rat: amplitude and rate of the contractions; type: in vivo; conditions: for amplitude of the bladder contractions / rate of the bladder contractions: anesthetized rat, iv, 6.83, 13.7 and 27.3 mg/kg given as citrate, FIG. 2
Description: (1) Isovolumetric Rhythmic Bladder Contractions in the Anesthetized Rat
(a) Amplitude and Rate of the Contractions
Rat urinary bladder catheterized:
A pressure transducer is used to measure intravesical pressure (recording rate and amplitude of bladder contractions).
An infusion pump is used to fill bladder by 0.1 ml increments of saline until rhythmic contractions. After 15 minutes of constant interval bladder contractions, (R)-(+)-2-((1-methyl-1H-pyrazol-5-yl)(phenyl)methoxy-N-methylethanamine citrate in 6.83, 13.7, and 27.3 mg/kg dosages; (S)-(−)-2-((1-methyl-1H-pyrazol-5-yl)(phenyl)methoxy-N-methylethanamine citrate in 6.83, 13.7 and 27.3 mg/kg dosages; and oxybutinyn in a 1 mg/kg dose were administered by iv. Measurements were made before and then during 15 minute intervals after each administration.
Aditionally the compound 1, accoridng example 1, and its enantiomers were active in rat urinary incontinence test. They inhibited the amplitude of the rat bladder contractions. The compounds were evaluated in a model of cystometry in the anesthesized rat, looking for the effects on isovolumetric rhythmic bladder contractions. The method, which evaluatesthe effects of the test substances on lower urinary tract function, followed that described by Y. Kimura et al. ( Int. J. Urol. 1996, 3: 218-227).

[5] = tested on: urinary incontinence secondary to overactive bladder or idiopathic urge incontinence; assay: Clinical Study A, placebo controlled, 50 mg twice a day; type: in vivo, human; conditions: patients
Description: (§2) In a placebo controlled clinical trial 79 patients are randomized. Patients are from both genders with ages between 18 and 80 years (inclusive). They have urinary incontinence secondary to overactive bladder (detrusor hyperreflexia or instability) or idiopathic urge incontinence confirmed by the medical history and urodynamic study.
One group of patients is treated with 2-((1-methyl-1H-pyrazol-5-yl)(phenyl)methoxy-N-methylethanamine, 50 mg, twice a day, formulated as a tablet for oral administration. Another group is treated with placebo in matching tablets, twice a day, with administration by oral route. The patients are treated for 84 days.
Efficacy is measured by the difference from baseline in the mean number of leakages, micturitions, urgencies and voidings/24 hours as provided by a 7-day frequency-volume chart in the end of the study visit.
(§3) The primary efficacy analysis is based on the PP population. The treatment groups are compared with respect to the treatment effect, defined as the difference between treatment groups for changes from baseline in the number of voidings per 24 hours.
Additionally, the percentage of responders is compared based on an analysis of the number of patients having <8 voidings/day or experiencing complete dryness or both, and statistical significance determined.

[6] = tested on: aversive situation-induced immobility; assay: Inhibition of immobility induced by an aversive situation (tail suspension) in mice; type: in vivo; conditions: Mus musculus, ip, read-out: Immobility test Tail hanging In mice ED50
Description: The test was described by R. D. Porsolt et al. (Arch.int.Pharmacodyn. 1987, 288: 11-30). Following suchg method, the compound to be studied was administered by ip route, and 30 minutes later mice were submitted to an aversive situation: they were tail suspended in the […] for 6 minutes. Mobility time and movements power were authomatically measured and registered in the above mentioned device. The potential antidepressant reduce the mice immobility time.

[7] = tested on: rat urinary bladder; assay: Urodynamic parameters (cystometry) in the anesthetized rat; type: in vivo; conditions: for mean volume of micturition / number of micturitions / volume for the first micturition: anesthetized rat, iv, duloxetine 1 mg/kg, cizolirtine 10 mg/kg, N-desmethyl metabolite 10 mg/kg, vs control vehicle, FIG. 3
Description: Rat urinary bladder was catheterized. A pressure transducer was used to measure intavesical pressure in anesthetized rats treated with 1 mg/kg duloxetine, 10 mg/kg cizolirtine, 10 mg/kg N-desmethyl metabolite or a control vehicle. Recordings were made of the infusion volume, pressure needed for micturition, number of micturitions during the infusion.
An infusion pump was used to fill bladder with saline until micturition. After stabilization, treatment compounds or control vehicle were administered by iv. Fifteen minutes after administration, saline infusion was started and urodynamic parameters were again analyzed. The number of micturitions, volume for first micturition, mean volume for micturition, and AUC of intravesical pressure were measured for each of the treatment groups and compared to the control.
as §1

[8] = target: T1, serotonin transporter (Rattus norvegicus, UniProt P31652); assay: Serotonin transporter affinity, (3H)paroxetine binding in rat brain cortex; conditions: (3H)paroxetine radioligand, serotonin 100 μM non specific
T1 construct: from tissue; host or cells: rat brain cortex
T1 sequence (P31652 whole entry): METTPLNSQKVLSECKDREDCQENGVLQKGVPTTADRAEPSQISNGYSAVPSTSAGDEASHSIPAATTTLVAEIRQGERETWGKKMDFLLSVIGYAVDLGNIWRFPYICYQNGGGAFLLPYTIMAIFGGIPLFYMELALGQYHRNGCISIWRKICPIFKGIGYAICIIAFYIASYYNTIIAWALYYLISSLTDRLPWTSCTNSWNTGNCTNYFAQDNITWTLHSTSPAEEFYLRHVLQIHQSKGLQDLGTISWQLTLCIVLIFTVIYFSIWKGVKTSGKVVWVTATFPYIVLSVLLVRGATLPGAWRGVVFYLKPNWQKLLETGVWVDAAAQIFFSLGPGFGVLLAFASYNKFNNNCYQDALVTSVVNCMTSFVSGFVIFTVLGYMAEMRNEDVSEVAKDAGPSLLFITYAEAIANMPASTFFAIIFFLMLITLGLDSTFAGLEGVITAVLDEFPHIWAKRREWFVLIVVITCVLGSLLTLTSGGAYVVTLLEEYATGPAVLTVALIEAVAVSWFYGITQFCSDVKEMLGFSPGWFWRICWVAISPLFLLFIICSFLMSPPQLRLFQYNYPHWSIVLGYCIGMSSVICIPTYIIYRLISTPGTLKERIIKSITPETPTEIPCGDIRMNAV
Description: This affinity was studied in rat brain cortex, using (3H)paroxetine ([…]) as radioligand and 5-Hydroxytriptamine (serotonin)(100 μM) as non specific ligand.

[9] = tested on: urinary incontinence secondary to overactive bladder or idiopathic urge incontinence; assay: Clinical Study B, placebo controlled, 100 mg twice daily; type: in vivo, human; conditions: patients, 100 mg by oral route twice daily, 84 days
Description: as §2, with “135” for “79”
One group of patients is treated with 2-((1-methyl-1H-pyrazol-5-yl)(phenyl)methoxy-N-methylethanamine 100 mg formulated as an oral administration (twice daily). Another group is treated with placebo matching capsules, […], with administration by oral route. The patients are treated for 84 days.
Efficacy is measured by the difference from baseline in the mean number of voidings/24 hours as provided by a 7-day frequency-volume chart in the end of study visit.
as §3
Additionally, the percentage of responders is compared based on analysis of the number of patients having <8 voidings per day or experienced complete dryness or both., and statistical significance determined.

[10] = N-desmethyl metabolite 10 mg/kg
[11] = acetic acid-treated rat bladder, N-desmethyl metabolite 10 mg/kg
[12] = 50 mg twice a day oral, 84 days, compared with placebo
[13] = mice, i.p., 30 minutes before tail suspension for 6 minutes
[14] = acetic acid 0.3% v/v infusion, 10 mg/kg i.v.
[15] = acetic acid 0.3% v/v infusion, 10 mg/kg i.v. acute
[16] = anaesthetized Sprague-Dawley rats, 10 mg/kg i.v., vs basal

CNCCCN1c2ccccc2CCc2ccccc21 [Desipramine]
inhibition at 30 mg/kg ([1]; Rattus norvegicus, ip, rats, i.p., 30 mg/Kg, read-out: Swimming Test Forced swimming In rats, I (inhibition) at single dose): 32%

CNCCOC(c1ccccc1)c1ccnn1C (centres unmarked) [Compound 1, 2-((1-methyl-1H-pyrazol-5-yl)(phenyl)methoxy)-N-methylethanamine]
ED50 [2]: 14 mg/kg
protection of the rat bladder against the acetic acid-induced hyperactivity [3, 10]: protected
number of micturitions (sentence on FIG. 5) ([3]; acetic acid-treated rat bladder, N-desmethyl metabolite 10 mg/kg, FIG. 5): increased
number of micturitions [3, 11]: reduced
volume for the first micturition [3, 11]: increased
amplitude of the rat bladder contractions, rat urinary incontinence test ([4]; cystometry in the anesthesized rat, method of Kimura et al.): inhibited
urge incontinence caused by overactive bladder, majority of efficacy variables ([5]; 50 mg twice a day by oral route, compared to placebo): clinically significant improvements
mean number of daily leakages [5, 12]: significant reduction
mean number of daily micturitions [5, 12]: significant reduction
mean number of daily urgencies [5, 12]: significant reduction
mean number of daily voidings [5, 12]: significant reduction
ED50 [6]: 17 mg/kg
ED50 ([1]; Rattus norvegicus, ip): 33 mg/kg
mean volume of micturition [7]: increased
number of micturitions [7]: decreased
volume for the first micturition [7]: increased
Ki [8]: 116 nM
bladder overactivity [9]: improve bladder overactivity

CNCC[C@H](Oc1cccc2ccccc12)c1cccs1 [duloxetine]
protection of the rat bladder against the acetic acid-induced hyperactivity [3, 10]: protected
number of micturitions [3, 11]: reduced
volume for the first micturition [3, 11]: increased
mean volume of micturition [7]: increased
number of micturitions [7]: decreased
volume for the first micturition [7]: increased

CN[C@H]1CC[C@@H](c2ccc(Cl)c(Cl)c2)c2ccccc21 [Sertraline]
ED50 ([2]; mice, p.o., reserpine i.p.): 17 mg/kg
ED50 [6, 13]: 8 mg/kg
ED50 ([1]; Rattus norvegicus, ip, rats, i.p., 60 minutes before the test): 28 mg/kg

CNCCO[C@@H](c1ccccc1)c1ccnn1C [2-((S)-(1-methyl-1H-pyrazol-5-yl)(phenyl)methoxy)-N-methylethanamine]
amplitude of the bladder contractions [4]: inhibited
rate of the bladder contractions [4]: without modifying the rate

CN(C)CCOC(c1ccccc1)c1ccnn1C (centres unmarked) [Cizolirtine]
ED50 ([2]; mice, p.o., reserpine i.p.): 26 mg/kg
protection of the rat bladder against the acetic acid-induced hyperactivity [3, 10]: protected
acetic acid-caused increase of bladder pressure [3, 14]: reversed
contractile capacity of the bladder [3, 14]: Neither acetic acid nor cizolirtine significantly affected
acetic acid-caused increase of micturition frequency [3, 15]: significantly reduced
acetic acid-caused reduction of micturition volume [3, 15]: significantly reduced
number of micturitions [3, 11]: reduced
volume for the first micturition [3, 11]: increased
ED50 [6, 13]: 17 mg/kg
Swimming Test Forced swimming In rats, activity at single dose ([1]; rats, i.p.): inactive
bladder contractility [7, 16]: no alteration
bladder pressure [7, 16]: significantly reduced
mean micturition volume [7, 16]: significantly increased
micturition frequency [7, 16]: trends to decrease
volume required for first micturition [7, 16]: augment
mean volume of micturition [7]: increased
number of micturitions [7]: decreased
volume for the first micturition [7]: increased

CNCCOC(c1cccs1)c1ccnn1C.O=C(O)C(=O)O (centres unmarked) [Compound 2, 2-((1-methyl-1H-pyrazol-5-yl)(thiophen-2-yl)methoxy)-N-methylethanamine; oxalate]
Inhibition test Reserpin ptosis In mice, activity at single dose ([2]; mice, p.o., 40 mg/Kg): inactive
ED50 [6, 13]: 33 mg/kg
Swimming Test Forced swimming In rats, activity at single dose ([1]; rats, i.p.): inactive

CNCCO[C@H](c1ccccc1)c1ccnn1C [(R)-2-((1-methyl-1H-pyrazol-5-yl)(phenyl)methoxy)-N-methylethanamine]
amplitude of the bladder contractions [4]: inhibited
rate of the bladder contractions [4]: without modifying the rate
